The values that follow come from patent publication US7829063B2, “Development of molecular imaging probes for carbonic anhydrase-IX using click chemistry” (Siemens Medical Solutions USA, Inc., priority 2007, dated 2010).

The target in one assay is T1, CA-IX (Homo sapiens, UniProt Q16790).
T1 construct: His tag (C); purchased R&D Systems Inc. 2188-CA; host or cells: mouse myeloma cell line NS0
Put plainly: CA-IX combinatorial library screening, competitive fluorescence-based assay with dansylamide (DNSA). Format: binding. Particulars: 1 h; Table 2, Libraries 4-7; sample concentrations 100 nM and 1000 nM, DNSA 200 μM; screening at 1 μM; read-out: In Vitro Binding Assay (Library (Screening)). On the procedure:
General. CA-IX human recombinant enzyme was expressed with a C-terminal His tag in a mouse myeloma cell line, NS0 (R&D Systems Inc., catalog number 2188-CA). The human red blood cells were obtained from Research Blood Components, LLC. All absorbance measurements were performed on a SPECTRA MAX M2 plate reader at 25° C. The LC/MS analyses were performed on an Agilent 1100 series LC/MSD (SL) using a 30×2.1 mm Zorbax C8 column with a Phenomenex C18 pre-column. Compound detection was accomplished by electrospray mass spectroscopy in positive selected ion mode (LC/MS-SIM). The elution solvents were acetonitrile and water, contained 0.05% TFA. Nuclear magnetic resonance (NMR) spectra were obtained on a Bruker AMX 300 MHz spectrometer or a Varian 400. 19F NMR spectra were recorded on a Bruker AMX 282.35 MHz or a Varian 400 spectrometer. The mass spectra were recorded on an Agilent 1100 series LC/MSD with electrospray mass spectroscopic detection. Flash column chromatography was performed on Merck silica gel (40-63 μm) using the solvent system indicated. The radiochemical and chemical purities were analyzed by RP-HPLC.
General Combinatorial Library Screening Protocol for CA-IX
The CA-IX screening assay was employed for testing libraries derived from the various “anchor” molecules, using ethoxzolamide as a positive control. The assay was performed at a substrate (dansylamide, DNSA) concentration of 200 μM, and sample concentrations of 100 nM and 1000 nM, respectively. A modified competitive fluorescence-based assay (A. Jain, S. G. Huang, G. M. Whitesides, J. Am. Chem. Soc. 1994, 116, 5057) was used to measure CA-IX activity. The enzymatic assay was carried out in a 96-well plate. To the wells, deionized water, 40 μL of phosphate buffer (250 mM, pH 7.4), 2.4 μL of CA-IX (17 μM), and 2 μL or 20 μL of inhibitor (concentration of 100 nM or 1000 nM) were added to achieve a final volume of 180 μL. Reactions were initiated by adding 20 μL DNSA (200 μM) to each well and the plate was incubated at 25° C. for 1 hour. The fluorescence intensities from each well of the plate were then read at 460 nm using a plate reader with an excitation wavelength of 290 nm.
Regarding `NS(=O)(=O)c1ccc(-c2cn([C@@H](Cc3ccccc3)C(=O)N3CCN(c4ncccn4)CC3)nn2)cc1` [DHK-2-4], the inhibition at 1 µM is under 40%.

With `NS(=O)(=O)c1ccc(-c2cn([C@@H](Cc3ccccc3)C(=O)NCc3ccc(-c4ccccn4)s3)nn2)cc1` [DHK-2-5], the inhibition at 1 µM is under 40%.

`NS(=O)(=O)c1ccc(-c2cn([C@@H](Cc3ccccc3)C(=O)N3CCC[C@@H]3CO)nn2)cc1` [DHK-2-6]: the inhibition at 1 µM is under 40%.

On to `NS(=O)(=O)c1ccc(-c2cn([C@@H](Cc3ccccc3)C(=O)N3CCN(c4ccccn4)CC3)nn2)cc1` [DHK-2-7], for which the inhibition at 1 µM was under 40%.

Consider `CCOC(=O)[C@@H](Cc1ccccc1)NC(=O)[C@H](Cc1ccccc1)n1cc(-c2ccc(S(N)(=O)=O)cc2)nn1` [DHK-2-8], for which the inhibition at 1 µM was under 40%.

As for `CCOC(=O)[C@@H](NC(=O)[C@H](Cc1ccccc1)n1cc(-c2ccc(S(N)(=O)=O)cc2)nn1)C(C)C` [DHK-2-9], the inhibition at 1 µM was under 40%.

For `COC(=O)[C@H](C)NC(=O)[C@H](Cc1ccccc1)n1cc(-c2ccc(S(N)(=O)=O)cc2)nn1` [DHK-2-10], the inhibition at 1 µM was under 40%.

Take `NS(=O)(=O)c1ccc(-c2cn([C@@H](Cc3ccccc3)C(=O)NCc3ccccn3)nn2)cc1` [DHK-2-11]: the inhibition at 1 µM is under 40%.

As for `NS(=O)(=O)c1ccc(-c2cn([C@@H](Cc3ccccc3)C(=O)NC3CCCCC3)nn2)cc1` [DHK-2-12], the inhibition at 1 µM is under 40%.

For `NS(=O)(=O)c1ccc(-c2cn([C@@H](Cc3ccccc3)C(=O)NCC3CC3)nn2)cc1` [DHK-2-13], the inhibition at 1 µM was under 40%.

As to `NS(=O)(=O)c1ccc(-c2cn([C@@H](Cc3ccccc3)C(=O)NCCCO)nn2)cc1` [DHK-2-14], the inhibition at 1 µM was under 40%.

As to `Cc1onc(-c2ccccc2)c1CNC(=O)[C@H](Cc1ccccc1)n1cc(-c2ccc(S(N)(=O)=O)cc2)nn1` [DHK-2-15], the inhibition at 1 µM was under 40%.

As for `CCOC(=O)CCN(Cc1ccco1)C(=O)[C@H](Cc1ccccc1)n1cc(-c2ccc(S(N)(=O)=O)cc2)nn1` [DHK-2-16], the inhibition at 1 µM was under 40%.

`CCOC(=O)C1CCN(C(=O)[C@H](Cc2ccccc2)n2cc(-c3ccc(S(N)(=O)=O)cc3)nn2)CC1` [DHK-2-17]: the inhibition at 1 µM was under 40%.

Regarding `NS(=O)(=O)c1ccc(-c2cn([C@@H](Cc3ccccc3)C(=O)N3CCC(CCO)CC3)nn2)cc1` [DHK-2-18], the inhibition at 1 µM was under 40%.

On to `NS(=O)(=O)c1ccc(-c2cn([C@@H](Cc3ccccc3)C(=O)NC3c4ccccc4C[C@@H]3O)nn2)cc1` (some centres unmarked) [DHK-2-19], for which the inhibition at 1 µM was under 40%.

With `NS(=O)(=O)c1ccc(-c2cn([C@@H](Cc3ccccc3)C(=O)NCC3COc4ccccc4O3)nn2)cc1` (some centres unmarked) [DHK-2-20], the inhibition at 1 µM was under 40%.

Consider `NS(=O)(=O)c1ccc(-c2cn([C@@H](Cc3ccccc3)C(=O)N3CCC(N4CCCC4)CC3)nn2)cc1` [DHK-2-21], for which the inhibition at 1 µM is under 40%.

`Cn1c(CNC(=O)[C@H](Cc2ccccc2)n2cc(-c3ccc(S(N)(=O)=O)cc3)nn2)nc2ccccc21` [DHK-2-22]: the inhibition at 1 µM is under 40%.

Take `NS(=O)(=O)c1ccc(-c2cn([C@@H](Cc3ccccc3)C(=O)NCCN3CCN(Cc4ccccc4)CC3)nn2)cc1` [DHK-2-23]: the inhibition at 1 µM was under 40%.

`CC(C)[C@@H](C(=O)NCc1ccc(F)cc1)n1cc(COc2ccc3nc(S(N)(=O)=O)sc3c2)nn1` [DHK-2-25]: the inhibition at 1 µM was under 40%.

Take `CC(C)[C@@H](C(=O)N(C)Cc1ccccc1)n1cc(COc2ccc3nc(S(N)(=O)=O)sc3c2)nn1` [DHK-2-26]: the inhibition at 1 µM is under 40%.

In the case of `CC(C)[C@@H](C(=O)NCCSCc1ccc(CN(C)C)o1)n1cc(COc2ccc3nc(S(N)(=O)=O)sc3c2)nn1` [DHK-2-27], the inhibition at 1 µM was under 40%.

For `CC(C)[C@@H](C(=O)N1CCN(c2ncccn2)CC1)n1cc(COc2ccc3nc(S(N)(=O)=O)sc3c2)nn1` [DHK-2-28], the inhibition at 1 µM is under 40%.

As to `CC(C)[C@@H](C(=O)NCc1ccc(-c2ccccn2)s1)n1cc(COc2ccc3nc(S(N)(=O)=O)sc3c2)nn1` [DHK-2-29], the inhibition at 1 µM is under 40%.

For the compound `CC(C)[C@@H](C(=O)N1CCC[C@@H]1CO)n1cc(COc2ccc3nc(S(N)(=O)=O)sc3c2)nn1` [DHK-2-30], the inhibition at 1 µM is under 40%.

In the case of `CC(C)[C@@H](C(=O)N1CCN(c2ccccn2)CC1)n1cc(COc2ccc3nc(S(N)(=O)=O)sc3c2)nn1` [DHK-2-31], the inhibition at 1 µM is under 40%.

Turning to `CCOC(=O)C(Cc1ccccc1)NC(=O)[C@H](C(C)C)n1cc(COc2ccc3nc(S(N)(=O)=O)sc3c2)nn1` (some centres unmarked) [DHK-2-32], the inhibition at 1 µM was under 40%.

On to `CCOC(=O)C(NC(=O)[C@H](C(C)C)n1cc(COc2ccc3nc(S(N)(=O)=O)sc3c2)nn1)C(C)C` (some centres unmarked) [DHK-2-33], for which the inhibition at 1 µM is under 40%.

In the case of `COC(=O)C(C)NC(=O)[C@H](C(C)C)n1cc(COc2ccc3nc(S(N)(=O)=O)sc3c2)nn1` (some centres unmarked) [DHK-2-34], the inhibition at 1 µM was under 40%.

As for `CC(C)[C@@H](C(=O)NCc1ccccn1)n1cc(COc2ccc3nc(S(N)(=O)=O)sc3c2)nn1` [DHK-2-35], the inhibition at 1 µM is under 40%.

Consider `CC(C)[C@@H](C(=O)NC1CCCCC1)n1cc(COc2ccc3nc(S(N)(=O)=O)sc3c2)nn1` [DHK-2-36], for which the inhibition at 1 µM was under 40%.

For the compound `CC(C)[C@@H](C(=O)NCC1CC1)n1cc(COc2ccc3nc(S(N)(=O)=O)sc3c2)nn1` [DHK-2-37], the inhibition at 1 µM was under 40%.

Regarding `CC(C)[C@@H](C(=O)NCCCO)n1cc(COc2ccc3nc(S(N)(=O)=O)sc3c2)nn1` [DHK-2-38], the inhibition at 1 µM was under 40%.

For `Cc1onc(-c2ccccc2)c1CNC(=O)[C@H](C(C)C)n1cc(COc2ccc3nc(S(N)(=O)=O)sc3c2)nn1` [DHK-2-39], the inhibition at 1 µM was under 40%.

As to `CC(C)[C@@H](C(=O)N1CCN(CCO)CC1)n1cc(COc2ccc3nc(S(N)(=O)=O)sc3c2)nn1` [DHK-2-42], the inhibition at 1 µM was under 40%.

Consider `CC(C)[C@@H](C(=O)N[C@@H]1c2ccccc2C[C@@H]1O)n1cc(COc2ccc3nc(S(N)(=O)=O)sc3c2)nn1` [DHK-2-43], for which the inhibition at 1 µM was under 40%.

With `CC(C)[C@@H](C(=O)N1CCC(N2CCCC2)CC1)n1cc(COc2ccc3nc(S(N)(=O)=O)sc3c2)nn1` [DHK-2-45], the inhibition at 1 µM was under 40%.

Consider `CC(C)[C@@H](C(=O)NCCN1CCN(Cc2ccccc2)CC1)n1cc(COc2ccc3nc(S(N)(=O)=O)sc3c2)nn1` [DHK-2-47], for which the inhibition at 1 µM was under 40%.

Turning to `NS(=O)(=O)c1nc2ccc(OCc3cn([C@@H](Cc4ccccc4)C(=O)NCc4ccc(F)cc4)nn3)cc2s1` [DHK-2-52], the inhibition at 1 µM was under 40%.

`CN(Cc1ccccc1)C(=O)[C@H](Cc1ccccc1)n1cc(COc2ccc3nc(S(N)(=O)=O)sc3c2)nn1` [DHK-2-53]: the inhibition at 1 µM is under 40%.

Regarding `CN(C)Cc1ccc(CSCCNC(=O)[C@H](Cc2ccccc2)n2cc(COc3ccc4nc(S(N)(=O)=O)sc4c3)nn2)o1` [DHK-2-54], the inhibition at 1 µM was under 40%.

Take `NS(=O)(=O)c1nc2ccc(OCc3cn([C@@H](Cc4ccccc4)C(=O)N4CCN(c5ncccn5)CC4)nn3)cc2s1` [DHK-2-55]: the inhibition at 1 µM was under 40%.

As for `NS(=O)(=O)c1nc2ccc(OCc3cn([C@@H](Cc4ccccc4)C(=O)NCc4ccc(-c5ccccn5)s4)nn3)cc2s1` [DHK-2-56], the inhibition at 1 µM is under 40%.

In the case of `NS(=O)(=O)c1nc2ccc(OCc3cn([C@@H](Cc4ccccc4)C(=O)N4CCC[C@@H]4CO)nn3)cc2s1` [DHK-2-57], the inhibition at 1 µM was under 40%.

Regarding `NS(=O)(=O)c1nc2ccc(OCc3cn([C@@H](Cc4ccccc4)C(=O)N4CCN(c5ccccn5)CC4)nn3)cc2s1` [DHK-2-58], the inhibition at 1 µM is under 40%.

Still in this assay, the particulars now being: Table 2, Libraries 4-7; sample concentrations 100 nM and 1000 nM, DNSA 200 μM; screening at 1 μM.
Turning to `CC(C)[C@@H](C(=O)NCc1ccc(C(F)(F)F)cc1)n1cc(COc2ccc3nc(S(N)(=O)=O)sc3c2)nn1` [DHK-2-24], the “In Vitro Binding Assay (Library Screening)” value (shortened to “In Vitro Binding Assay”) is listed as “√ √”.

For the compound `CCOC(=O)C1CCN(C(=O)[C@H](C(C)C)n2cc(COc3ccc4nc(S(N)(=O)=O)sc4c3)nn2)CC1` [DHK-2-41], the “In Vitro Binding Assay” value was “√”.

On to `CC(C)[C@@H](C(=O)NCC1COc2ccccc2O1)n1cc(COc2ccc3nc(S(N)(=O)=O)sc3c2)nn1` (some centres unmarked) [DHK-2-44], for which the “In Vitro Binding Assay” value is reported as “√”.

`NS(=O)(=O)c1nc2ccc(OCc3cn([C@@H](Cc4ccccc4)C(=O)NCc4ccc(C(F)(F)F)cc4)nn3)cc2s1` [DHK-2-51]: the “In Vitro Binding Assay” value is reported as “√”.
